Experimental data: US7521560B2, “2-substituted quinoline compounds and their uses” (Rigel Pharmaceuticals, Inc., priority 2004, dated 2009)

What follows are compounds tested on passive cutaneous anaphylaxis (PCA) response (assay: not given). Conditions: 8 mg/kg, i.p., 30 minutes pretreatment time, n=23 experiments.
`CN1CCC(=C2c3ccccc3C=Cc3ccccc32)CC1` [Cyproheptadine, cyproheptadine] was tested, and the “inhibition of the PCA response” value was 61%+/−4.

Same assay, conditions: highest dose, 50 mg/kg, i.p., 30 minutes pretreatment time
For `CN(C)CCOC(c1ccccc1)c1ccccc1` [diphenhydramine], the “inhibition of the PCA response” value was “up to 86%”.

The compounds below were run on cultured human mast cells (CHMC) (assay: CHMC low cell density IgE activation: tryptase release assay). Conditions: Homo sapiens, Mast cell, anti-IgE-induced tryptase release, low density CHMC.
Type: cell-based
Experimental: Inhibition of degranulation was measured at low density (and could also be measures at high cell density) by quantifying the release of the granule specific factor tryptase. Tryptase was quantified using a fluorogenic substrates as described in its respective examples. Histamine, TNFα, IL-6, IL-13 and LTC4 can be quantified, if desired, using the following commercial ELISA kits: histamine (Immunotech #2015, Beckman Coulter), TNFα (Biosource #KHC3011), IL-6 (Biosource #KMC0061), IL-13 (Biosource #KHC0132) and LTC4 (Cayman Chemical #520211). The protocols for various assays are provided below.
A second phase is performed to convert the expanded CD34-negative progenitor cells into differentiated mucosal mast cells. These mucosal cultured human mast cells (“CHMC”) are derived from CD34+ cells isolated from umbilical cord blood and treated to form a proliferated population of CD34-negative progenitor cells, as described above. To produce the CD34-negative progenitor cells, the resuspension cycle for the culture was the same as that described above, except that the culture was seeded at a density of 425,000 cells/mL and 15% additional media was added on about day four or five without performing a cell count. Also, the cytokine composition of the medium was modified such that it contained SCF (200 ng/mL) and recombinant human IL-6 (200 ng/mL; Peprotech, Catalog No. 200-06 reconstituted to 100 ug/mL in sterile 10 mM acetic acid) (“CM/SCF/IL-6 medium”).
To duplicate 96-well U-bottom plates (Costar 3799) add 65 ul of compound dilutions or control samples that have been prepared in MT [137 mM NaCl, 2.7 mM KCl, 1.8 mM CaCl2, 1.0 mM MgCl2, 5.6 mM Glucose, 20 mM Hepes (pH 7.4), 0.1% Bovine Serum Albumin, (Sigma A4503)] containing 2% MeOH and 1% DMSO. Pellet CHMC cells (980 rpm, 10 min) and resuspend in pre-warmed MT. Add 65 ul of cells to each 96-well plate. Depending on the degranulation activity for each particular CHMC donor, load 1000-1500 cells/well. Mix four times followed by a 1 hr incubation at 37° C. During the 1 hr incubation, prepare 6× anti-IgE solution [rabbit anti-human IgE (1 mg/ml, Bethyl Laboratories A80-109A) diluted 1:167 in MT buffer]. Stimulate cells by adding 25 ul of 6× anti-IgE solution to the appropriate plates. Add 25 ul MT to un-stimulated control wells. Mix twice following addition of the anti-IgE. Incubate at 37° C. for 30 minutes. During the 30 minute incubation, dilute the 20 mM tryptase substrate stock solution [(Z-Ala-Lys-Arg-AMC.2TFA; Enzyme Systems Products, #AMC-246)] 1:2000 in tryptase assay buffer [0.1 M Hepes (pH 7.5), 10% w/v Glycerol, 10 uM Heparin (Sigma H-4898) 0.01% NaN3]. Spin plates at 1000 rpm for 10 min to pellet cells. Transfer 25 ul of supernatant to a 96-well black bottom plate and add 100 ul of freshly diluted tryptase substrate solution to each well. Incubate plates at room temperature for 30 min. Read the […] of the plates at 355 nm/460 nm on a spectrophotometric plate reader.
The results of low density CHMC assays for release of tryptase (Section 6.2.2) are provided for examplary quinoline compounds in TABLE 1, supra. In TABLE 1, a value of “+” indicates an IC50 of 20 μM or less; a value of “++” indicates an IC50 of 10 μM or less; and a value of “+++” indicates an IIC50 of 5 μM or less.
For `Clc1ccc2nc(Nc3cc(-c4ccccc4)n[nH]3)ccc2c1` [Compound 1, 6-chloro-2-(3-phenyl-1H-pyrazol-5-ylamino)quinoline], the IC50 was ≤ 5 µM.
For `Clc1cccc2ccc(Nc3n[nH]c(-c4ccccc4)c3Br)nc12` [Compound 2, 2-(4-bromo-5-phenyl-1H-pyrazol-3-ylamino)-8-chloroquinoline], the IC50 was ≤ 5 µM.
`Clc1ccc2nc(Nc3n[nH]c(-c4ccccc4)c3Br)ccc2c1` [Compound 3, 2-(4-bromo-5-phenyl-1H-pyrazol-3-ylamino)-6-chloroquinoline] was tested, and the IC50 was ≤ 5 µM.
With `NC(=O)c1[nH]cnc1Nc1ccc2cc(Cl)ccc2n1` [Compound 4, 2-(5-aminocarbonyl-1H-imidazol-4-ylamino)-6-chloroquinoline] the IC50 was ≤ 5 µM.
For `NC(=O)c1[nH]cnc1Nc1ccc2cccc(Cl)c2n1` [Compound 5, 2-(5-aminocarbonyl-1H-imidazol-4-ylamino)-8-chloroquinoline], the IC50 was ≤ 5 µM.
For `NC(=O)c1c[nH]nc1Nc1ccc2cccc(Cl)c2n1` [Compound 6, 2-(4-aminocarbonyl-1H-pyrazol-3-ylamino)-8-chloroquinoline], the IC50 was ≤ 5 µM.
In the case of `Clc1cccc2ccc(Nc3cc(-c4ccccc4)n[nH]3)nc12` [Compound 7, 8-chloro-2-(3-phenyl-1H-pyrazol-5-ylamino)quinoline], the IC50 is reported as ≤ 5 µM.
With `Clc1cccc2ccc(Nc3cc(-c4cccs4)n[nH]3)nc12` [Compound 8, 8-chloro-2-(3-thiophen-2-yl-1H-pyrazol-5-ylamino)quinoline] the IC50 was ≤ 5 µM.
`Clc1ccc2nc(Nc3cc(-c4cccs4)n[nH]3)ccc2c1` [Compound 9, 6-chloro-2-(3-thiophen-2-yl-1H-pyrazol-5-ylamino)quinoline] was tested, and the IC50 was ≤ 5 µM.
With `COc1ccc(-c2cc(Nc3ccc4cccc(Cl)c4n3)n[nH]2)cc1` [Compound 10, 8-chloro-2-[5-(4-methoxyphenyl)-1H-pyrazol-3-ylamino]quinoline] the IC50 was ≤ 5 µM.
With `COc1ccc(-c2cc(Nc3ccc4cc(Cl)ccc4n3)n[nH]2)cc1` [Compound 11, 6-chloro-2-[5-(4-methoxyphenyl)-1H-pyrazol-3-ylamino]quinoline] the IC50 was ≤ 5 µM.
With `Cc1cc(Nc2ccc3cccc(Cl)c3n2)n[nH]1` [Compound 12, 8-chloro-2-(5-methyl-1H-pyrazol-3-ylamino)quinoline] the IC50 was ≤ 5 µM.
For `CC(C)(C)c1cc(Nc2ccc3cccc(Cl)c3n2)n[nH]1` [Compound 13, 2-(5-tert-butyl-1H-pyrazol-3-ylamino)-8-chloroquinoline], the IC50 was ≤ 10 µM.
For `Cc1cc(Nc2nc[nH]c2C(N)=O)nc2ccccc12` [Compound 15, 2-(5-aminocarbonyl-1H-imidazol-4-ylamino)-4-methylquinoline], the IC50 was ≤ 10 µM.
For `NC(=O)c1c[nH]nc1Nc1ccc2cc(Cl)ccc2n1` [Compound 16, 2-(4-aminocarbonyl-1H-pyrazol-3-ylamino)-6-chloroquinoline], the IC50 was ≤ 10 µM.
In the case of `CCOC(=O)c1c[nH]nc1Nc1ccc2cccc(Cl)c2n1` [Compound 17, 8-chloro-2-(4-ethoxycarbonyl-1H-pyrazol-3-ylamino)quinoline], the IC50 is reported as ≤ 10 µM.
`CNC(=O)c1cc(Nc2nc[nH]c2C(N)=O)nc2ccccc12` [Compound 18, 2-(5-aminocarbonyl-1H-imidazol-4-ylamino)-4-methylaminocarbonylquinoline] was tested, and the IC50 was ≤ 10 µM.
With `Clc1cccc2ccc(Nc3cc[nH]n3)nc12` [Compound 19, 8-chloro-2-(1H-pyrazol-3-ylamino)quinoline] the IC50 was ≤ 20 µM.
With `N#Cc1c[nH]nc1Nc1ccc2cccc(Cl)c2n1` [Compound 20, 8-chloro-2-(4-cyano-1H-pyrazol-3-ylamino)quinoline] the IC50 was ≤ 20 µM.
For `Oc1cccc2ccc(Nc3nc[nH]c3Cl)nc12` [Compound 21, 2-(5-chloro-1H-imidazol-4-ylamino)-8-hydroxyquinoline], the IC50 was > 20 µM.
`NC(=O)c1[nH]cnc1Nc1cc(C(=O)N2CCOCC2)c2ccccc2n1` [Compound 22, 2-(5-aminocarbonyl-1H-imidazol-4-ylamino)-4-(4-morpholinocarbonyl)quinoline] was tested, and the IC50 was > 20 µM.

Same assay, conditions: Homo sapiens, Mast cell, anti-IgE-induced tryptase release, low density CHMC; stated in text
`Oc1cccc2ccc(Nc3nc[nH]c3Cl)nc12` [Compound 21, 2-(5-chloro-1H-imidazol-4-ylamino)-8-hydroxyquinoline] was tested, and the IC50 was > 20 µM.
`NC(=O)c1[nH]cnc1Nc1cc(C(=O)N2CCOCC2)c2ccccc2n1` [Compound 22, 2-(5-aminocarbonyl-1H-imidazol-4-ylamino)-4-(4-morpholinocarbonyl)quinoline] was tested, and the IC50 was > 20 µM.

Same assay, conditions: referring to TABLE 1
`CCOC(=O)c1c[nH]nc1Nc1ccc2cccc(Cl)c2n1` [Compound 17, 8-chloro-2-(4-ethoxycarbonyl-1H-pyrazol-3-ylamino)quinoline] was tested, and the “activity in "prodrug" form” value was “active”.
In the case of `CNC(=O)c1cc(Nc2nc[nH]c2C(N)=O)nc2ccccc12` [Compound 18, 2-(5-aminocarbonyl-1H-imidazol-4-ylamino)-4-methylaminocarbonylquinoline], the “activity in "prodrug" form” value is reported as “active”.
